pEC50: −log10 of the molar value.
System: Vibrio cholerae
Assay: Agonist activity at CqsS in Vibrio cholerae MM920 harboring deltacqsA, deltaluxQ and pBB1 at 50000 nM after 4 hrs by bioluminescence assay relative to CAI-1
Format: functional

SMILES	Emax
CCCCOC(=O)C(O)CC (racemic)	23%
CCCCc1ccccc1COC(=O)C(O)CC (racemic)	11%
CCc1ccccc1CCCOC(=O)C(O)CC (racemic)	28%
CCOCCOCCOC(=O)C(O)CC (racemic)	31%

System: not listed separately
Assay: Agonist activity at CqsS in Vibrio cholerae MM920 harboring deltacqsA, deltaluxQ and pBB1 after 4 hrs by bioluminescence assay
Format: functional

SMILES	pEC50
CCCCc1cccc(COC(=O)C(O)CC)c1 (racemic)	5.43
CCCCCC#CCOC(=O)C(O)CC (racemic)	6.26
CCCCCCOCCOC(=O)C(O)CC (racemic)	5.62
CCC/C=C/CCCOC(=O)C(O)CC (racemic)	6.57
CCCCOC(=O)C(O)CC (racemic)	< 4.30
CCCCC/C=C/COC(=O)C(O)CC (racemic)	7.27
CCCCc1ccccc1COC(=O)C(O)CC (racemic)	< 4.30
CCc1ccccc1CCCOC(=O)C(O)CC (racemic)	< 4.30
CCCCc1ccc(COC(=O)[C@@H](O)CC)cc1	6.93
CCCCCCCCCC(=O)[C@@H](N)CC	7.55
CCC/C=C\CCCOC(=O)C(O)CC (racemic)	5.74
CCCCCCCCCOC(=O)C(O)CC (racemic)	7.14
CCCCC/C=C/COC(=O)[C@@H](O)CC	7.41
CCCCCCCCCCOC(=O)C(O)CC (racemic)	6.14
CCCC/C=C/CCOC(=O)C(O)CC (racemic)	6.11
CCCCCCCCOC(=O)[C@@H](N)CC	7.52
CCCCCCCCOC(=O)[C@H](N)CC	7.48

SMILES	pEC50
CCc1ccc(CCCOC(=O)C(O)CC)cc1 (racemic)	6.72
CCCC/C=C\CCOC(=O)C(O)CC (racemic)	6.11
CCCCCCCOC(=O)C(O)CC (racemic)	6.46
CCOCCOCCOC(=O)C(O)CC (racemic)	< 4.30
CCCCCOCCOC(=O)C(O)CC (racemic)	5.36
CCCCCCCCNC(=O)[C@@H](O)CC	5.82
CCCCC#CCCOC(=O)C(O)CC (racemic)	5.70
CC/C=C/CCCCOC(=O)C(O)CC (racemic)	6.08
CCCCC/C=C\COC(=O)C(O)CC (racemic)	6.15
CC/C=C\CCCCOC(=O)C(O)CC (racemic)	6.24
CCCCCc1ccc(COC(=O)C(O)CC)cc1 (racemic)	6.17
CCc1cccc(CCCOC(=O)C(O)CC)c1 (racemic)	5.03
CCCCc1ccc(COC(=O)C(O)CC)cc1 (racemic)	6.72
CCCCC[C@@H]1C[C@H]1COC(=O)C(O)CC (mixture of isomers)	5.92
CCCCCc1cccc(COC(=O)C(O)CC)c1 (racemic)	5.80
CCC(O)C(=O)OCCOCCOCCOC (racemic)	5.00
CCCCCCOC(=O)C(O)CC (racemic)	6.00

— ChEMBL document CHEMBL2177101, “Role of the CAI-1 fatty acid tail in the Vibrio cholerae quorum sensing response” (J Med Chem, 2012)
